Test results reported in PubChem BioAssay AID1996.
Values after ≈ are worked out from the molar mass of the structure shown.

Settings: buffer; pH 7.4; 200.0 µM

solubility kinetic	SMILES
1.9 µg/mL (≈ 6.37 µM)	Cc1ccccc1NC(=O)Cn1c(=O)sc2ccccc21
> 35.4 µg/mL	COc1ccc(C(=O)NC2=NCCS2)cc1
> 49.5 µg/mL	O=C1CCCN1CCCNC(=S)Nc1ccc(F)c(Cl)c1
> 52.5 µg/mL	CCOC(=O)N1CCN(Cc2cc(Cl)c3cccnc3c2O)CC1
9.1 µg/mL (≈ 27.7 µM)	CC(=O)c1ccc(Oc2nc3c(c(=O)n(C)c(=O)n3C)n2C)cc1
3.1 µg/mL (≈ 11.2 µM)	Cc1c(C(=O)Nc2nccs2)oc2ccc(F)cc12
4.1 µg/mL (≈ 13.2 µM)	CCOc1ccccc1OCC(=O)Nc1nc2ccccc2[nH]1
43 µg/mL (≈ 147 µM)	CN(CC(=O)Nc1ccc(F)cc1)CC(=O)N1CCCC1
> 43.4 µg/mL	CC1CCCC(NC(=O)c2ccc3c(c2)OCCO3)C1C (configuration not stated)
> 48.7 µg/mL	CN(C(=O)CSc1nncn1-c1ccccc1)c1ccccc1
> 48.1 µg/mL	Cc1ccc(C(=O)NCC(=O)N(C)Cc2cccc(F)c2)s1
> 46.5 µg/mL	O=C(COC(=O)Cc1ccsc1)Nc1ccccc1Cl
> 47.9 µg/mL	CC1=C(C)CC(C(=O)NCCc2ccc(F)cc2)C(C(=O)O)C1 (configuration not stated)
> 36.2 µg/mL	COc1ccc(-c2nc3ncccc3n2O)cc1
42 µg/mL (≈ 148 µM)	CN1CCN(S(=O)(=O)c2cccc(C(=O)O)c2)CC1
2.1 µg/mL (≈ 6.13 µM)	Cc1ccc2nc3c(cc(C#N)c(=N)n3Cc3cccnc3)c(=O)n2c1
1.6 µg/mL (≈ 5.57 µM)	COc1cc(SC)ccc1C(=O)Nc1ccc(C)cc1
2.1 µg/mL (≈ 4.84 µM)	COc1ccccc1NC(=O)c1cc2c(cc1Cl)N1CCCCCC1=NS2(=O)=O
> 56.9 µg/mL	CN(C)/C=C1\C(=O)N(c2ccc(F)cc2F)C(c2cccnc2)S1(=O)=O (configuration not stated)
47.7 µg/mL (≈ 144 µM)	CCNC(=S)NC1CC2CCCC(C1)N2Cc1ccc(C)cc1 (configuration not stated)
2.3 µg/mL (≈ 8.2 µM)	Cc1ccc(CNC(=O)Cc2noc3ccccc23)cc1
12.9 µg/mL (≈ 34.6 µM)	Nc1ccccc1C(=O)NCCCN1CCN(c2cccc(Cl)c2)CC1
1.9 µg/mL (≈ 6.33 µM)	O=C(Nc1nc2ccc([N+](=O)[O-])cc2s1)c1ccncc1

solubility kinetic	SMILES
26.3 µg/mL (≈ 128 µM)	O=C(NC1CC2CCC1C2)c1ccco1 (configuration not stated)
3.2 µg/mL (≈ 7.09 µM)	CC(=O)Oc1ccc(-c2ccc(C(=O)OCC(=O)c3c(N)n(C)c(=O)n(C)c3=O)cc2)cc1
> 48.2 µg/mL	CCOC(=O)Cn1ccc(NC(=O)COc2ccc(F)cc2)n1
8.6 µg/mL (≈ 26 µM)	C=CCSc1nc2ccccc2c(=O)n1C1CCOC(C)(C)C1 (configuration not stated)
8.9 µg/mL (≈ 22.5 µM)	CCC1(CC)NC(=O)N(CC(=O)Nc2ccc(OCc3ccccc3)cc2)C1=O
> 43.4 µg/mL	COc1cccc(NC(=O)c2cnc(SC)nc2C)c1
5.1 µg/mL (≈ 20.7 µM)	Cc1ccccc1Sc1ncccc1[N+](=O)[O-]
6.4 µg/mL (≈ 20.7 µM)	O=C(NC(=S)Nc1cccnc1Cl)c1ccc(F)cc1
0.9 µg/mL (≈ 2.66 µM)	CCOC(=O)C(=CNc1ccc(OC)cc1[N+](=O)[O-])C(=O)OCC
4 µg/mL (≈ 12.2 µM)	CC(C)c1ccc(N2C(=O)CC(Sc3ncccn3)C2=O)cc1 (configuration not stated)
11.4 µg/mL (≈ 33 µM)	O=C(COc1ccccc1Cl)Nc1nc(-c2ccncc2)cs1
< 0.2 µg/mL	Cc1c(-c2nc(-c3ccc(C(C)(C)C)cc3)no2)n(C)oc1=O
> 35.4 µg/mL	COc1ccc(C(=O)NN2CCOCC2)cc1
> 73.4 µg/mL	O=C(OCC(=O)N1CCCCCC1)c1ccc(Br)c(S(=O)(=O)N2CCOCC2)c1
45.3 µg/mL (≈ 138 µM)	CS(=O)(=O)N(CC(=O)Nc1ccc(F)cc1)C1CCCCC1
1.9 µg/mL (≈ 5.84 µM)	O=C(Nc1ccc(NC(=O)c2ccco2)nc1)c1cccc(F)c1
> 49.5 µg/mL	O=C(O)CN1C(=O)C(=O)N(Cc2ccc(C(F)(F)F)cc2)C1=O
> 48.1 µg/mL	CCCC(=O)N(Cc1cc(=O)[nH]c2ccccc12)c1ccccc1
1.9 µg/mL (≈ 6.15 µM)	CC1Cc2ccccc2N1S(=O)(=O)c1ccc(Cl)nc1 (configuration not stated)
1.9 µg/mL (≈ 5.7 µM)	CC(OC(=O)/C=C/c1cccc(F)c1)C(=O)NC1CCCCC1C (configuration not stated)
1.2 µg/mL (≈ 3.94 µM)	CCCc1ccc(C(C)NC(=S)NC2CCCCC2)cc1 (configuration not stated)
28.1 µg/mL (≈ 111 µM)	Cc1ccc(S(=O)(=O)Nc2cc(C)on2)cc1
53.1 µg/mL (≈ 141 µM)	CC(C)NS(=O)(=O)c1ccc(OCC(=O)NC(C)c2ccccc2)cc1 (configuration not stated)

solubility kinetic	SMILES
40.6 µg/mL (≈ 131 µM)	COCc1cc(=O)[nH]c(/N=C(\N)Nc2c(F)cccc2F)n1
> 49.1 µg/mL	Cc1ccc(NC(=O)N2CCC(NC(=O)c3ccco3)CC2)cc1
6.2 µg/mL (≈ 20.9 µM)	O=C(NCc1ccccc1Cl)c1ccc2ccccc2n1
> 33.2 µg/mL	O=C(NCCc1cnc[nH]1)c1cccs1
28.8 µg/mL (≈ 140 µM)	Cc1ccc(N=C(N)N=C(N)N)c(C)c1
0.6 µg/mL (≈ 1.93 µM)	Cc1ccccc1NC(=S)N1CCN(c2ccccc2)CC1
44.2 µg/mL (≈ 133 µM)	S=C(Nc1cccnc1)N1CCN(c2ccccc2Cl)CC1
> 47.6 µg/mL	N#Cc1ccccc1OCC(O)CS(=O)(=O)c1ccccc1 (configuration not stated)
> 34.1 µg/mL	COC(=O)CNC(=O)c1cccc(Cl)c1
3 µg/mL (≈ 8.95 µM)	O=C(COC(=O)c1ccc2ccccc2c1O)NCc1ccccc1
40.2 µg/mL (≈ 134 µM)	COc1c(Cl)cc(C(=O)NCc2ccco2)cc1Cl
> 55.9 µg/mL	O=C(Nc1ccc(Cl)c(S(=O)(=O)N2CCOCC2)c1)C1CCCC1
> 32.9 µg/mL	CC1CN(Cc2ccccc2)C(C)CC1O (configuration not stated)
< 0.4 µg/mL	Cc1ccccc1C(=O)N1CCc2c([nH]c3ccccc23)C1C(F)(F)F (configuration not stated)
10.9 µg/mL (≈ 32.3 µM)	Cc1ccc(NC(=O)NC(=O)c2cnccc2C(F)(F)F)c(C)c1
> 39.2 µg/mL	O=C(O)CCN=Cc1c(O)c2ccccc2oc1=O
44.9 µg/mL	CCOc1ccc(C(=O)CCN2CCOCC2)cc1.Cl
10.1 µg/mL (≈ 33.6 µM)	COc1ccc(/C=C(\C#N)C(=O)OCC(=O)NC2CC2)cc1
> 47.9 µg/mL	CCOc1ccccc1C(=O)OCC(=O)NCC1CCCCC1
8.5 µg/mL (≈ 23 µM)	COc1ccc(/C=C/C(=O)OCC(=O)NCCc2ccccc2)c(OC)c1
28.1 µg/mL (≈ 123 µM)	Cc1[nH]c2ccccc2c1-c1csc(N)n1
> 59.7 µg/mL	Cc1ccc(C(=O)C2=C(O)C(=O)N(Cc3ccco3)C2c2cccc(Cl)c2)o1 (configuration not stated)
5 µg/mL (≈ 18.6 µM)	COC(=O)Nc1sc2c(c1C(N)=O)CCC(C)C2 (configuration not stated)

solubility kinetic	SMILES
19.6 µg/mL (≈ 64.2 µM)	NC(=O)Nc1ccccc1C(=O)Nc1ccc2ccccc2c1
32.4 µg/mL (≈ 109 µM)	CSc1nsc(SCC(=O)Nc2ccccc2)n1
8.4 µg/mL (≈ 35.1 µM)	Nc1ncnc(Nc2ccc(F)c(Cl)c2)n1
> 33.5 µg/mL	CCN(CC)C(=O)c1ccc(O)c(OC)c1
0.2 µg/mL (≈ 0.663 µM)	Cc1cccc(Nc2nc(-c3sc(C)nc3C)cs2)c1
1.9 µg/mL (≈ 5.23 µM)	O=C(NC1CCN(Cc2ccc(Cl)c(Cl)c2)CC1)c1ccccc1
> 42.3 µg/mL	O=C(Nc1nc2ccccc2[nH]1)c1ccccc1[N+](=O)[O-]
30.9 µg/mL (≈ 99.4 µM)	CC(OC(=O)CC1CCCC1)C(=O)Nc1ccc(Cl)cn1 (configuration not stated)
> 50.5 µg/mL	CCN(C(=O)COC(=O)c1cccnc1SC)C1CCCCC1
> 40.3 µg/mL	CCc1nnc(NC(=O)c2cc(Cl)ccn2)s1
> 47.6 µg/mL	CCOC(=O)c1c(C)nc(C)c(C(=O)OCC)c1-c1ccco1
41 µg/mL (≈ 129 µM)	O=C(NCCCN1CCOCC1)c1cc(Cl)ccc1Cl
> 54.5 µg/mL	CCOc1ccc(S(=O)(=O)NC(C)C(=O)NCc2ccccn2)cc1 (configuration not stated)
> 49.3 µg/mL	CS(=O)(=O)N1CCN(Cc2cc(=O)n3ccsc3n2)CC1
15.6 µg/mL (≈ 44.7 µM)	CNS(=O)(=O)c1ccc(NC(=O)Nc2ccc3c(c2)OCO3)cc1
1 µg/mL (≈ 2.78 µM)	COCCNC(=O)CSc1ncnc2sc(-c3ccccc3)cc12
> 37.1 µg/mL	Cc1ccccc1C(=O)/C=C1/SCC(=O)N1C
> 53 µg/mL	CCC(OC(=O)c1nsc(Cl)c1Cl)C(=O)NC(C)(C)CC (configuration not stated)
> 39.2 µg/mL	Cc1nn(-c2cccc(C(=O)O)c2)c(C)c1[N+](=O)[O-]
15.7 µg/mL (≈ 51 µM)	CCN1CCC(N2CCN(c3ccc(Cl)cc3)CC2)CC1

SMILES	solubility kinetic
Cc1cccc(CNCCc2c[nH]c3ccccc23)c1.O=C(O)C(=O)O	> 53.2 µg/mL
CCOc1ccc2c(c1)c(C(C)=O)c(C)n2Cc1ccco1	< 0.6 µg/mL
COc1cc(C(C)=O)ccc1OC(=O)N(C)c1ccccc1	44.2 µg/mL (≈ 148 µM)
